Experiments:
Experiment in all cases: relative viability (nuclei count vs DMSO), 5 days (fraction); higher = more cells survive
Vandetanib + Luminespib = compound: COc1cc2/c(=N/c3ccc(Br)cc3F)nc[nH]c2cc1OCC1CCN(C)CC1 [Vandetanib] + CCNC(=O)c1noc(-c2cc(C(C)C)c(O)cc2O)c1-c1ccc(CN2CCOCC2)cc1 [Luminespib] (partner 0.01 µM)
Outline: (§1)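 One day after seeding in 1536-well plates, lung cancer cell lines were dosed by pin tool. Dosing was either single-drug or a fixed anchor-drug dose plus five library-drug doses (not always all listed) in √10 steps. After 5 days, nuclei were stained in one fix-and-stain step and counted on 4× images, and relative viability is the nuclei count of treated wells over that of vehicle wells, given as the median of duplicate plates.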

Vandetanib + Trametinib = compound: COc1cc2/c(=N/c3ccc(Br)cc3F)nc[nH]c2cc1OCC1CCN(C)CC1 [Vandetanib] + CC(=O)Nc1cccc(-n2c(=O)n(C3CC3)c(=O)c3c(Nc4ccc(I)cc4F)n(C)c(=O)c(C)c32)c1 [Trametinib] (partner 0.02 µM)
Outline: as §1

CUDC-101 + OSI-027 = compound: C#Cc1cccc(Nc2ncnc3cc(OC)c(OCCCCCCC(=O)NO)cc23)c1 [CUDC-101] + COc1cccc2cc(-c3nc([C@H]4CC[C@H](C(=O)O)CC4)n4ncnc(N)c34)[nH]c12 [OSI-027] (partner 0.5 µM)
Outline: as §1

NVP-TAE684 + Vorinostat = compound: COc1cc(N2CCC(N3CCN(C)CC3)CC2)ccc1Nc1ncc(Cl)c(Nc2ccccc2S(=O)(=O)C(C)C)n1 [NVP-TAE684] + O=C(CCCCCCC(=O)Nc1ccccc1)NO [Vorinostat] (partner 1 µM)
Outline: as §1

Cell Line	relative viability (Vandetanib + Luminespib; first compound 0.02 µM)	relative viability (Vandetanib + Luminespib; first compound 0.06325 µM)	relative viability (Vandetanib + Luminespib; first compound 0.2 µM)	relative viability (Vandetanib + Luminespib; first compound 0.6325 µM)	relative viability (Vandetanib + Luminespib; first compound 2 µM)	relative viability (Vandetanib + Trametinib; first compound 0.02 µM)	relative viability (Vandetanib + Trametinib; first compound 0.06325 µM)	relative viability (Vandetanib + Trametinib; first compound 0.2 µM)	relative viability (Vandetanib + Trametinib; first compound 0.6325 µM)	relative viability (Vandetanib + Trametinib; first compound 2 µM)	relative viability (CUDC-101 + OSI-027; first compound 0.01 µM)	relative viability (CUDC-101 + OSI-027; first compound 0.03162 µM)	relative viability (CUDC-101 + OSI-027; first compound 0.1 µM)	relative viability (CUDC-101 + OSI-027; first compound 0.3162 µM)	relative viability (CUDC-101 + OSI-027; first compound 1 µM)	relative viability (NVP-TAE684 + Vorinostat; first compound 0.2 µM)	relative viability (NVP-TAE684 + Vorinostat; first compound 0.6325 µM)	relative viability (NVP-TAE684 + Vorinostat; first compound 2 µM)
NCI-H358	0.336	0.471	0.461	0.218	0.239	0.153	0.129	0.123	0.128	0.123	0.834	0.893	0.909	0.884	0.315	0.697	0.608	0.0861
NCI-H1650	0.198	0.216	0.161	0.21	0.154	0.618	0.409	0.461	0.483	0.364	0.661	0.531	0.517	0.577	0.231	0.573	0.561	0.502
NCI-H2228	0.153	0.176	0.116	0.143	0.116	0.511	0.386	0.561	0.64	0.28	0.406	0.689	0.671	0.615	0.419	0.467	0.325	0.142
NCI-H2347	0.594		0.333	0.642	0.574	0.28	0.278	0.254	0.283	0.28	0.313	0.38	0.402	0.469	0.25	0.538	0.588	0.44
HCC-15	0.343	0.293	0.0608	0.298	0.227	0.386	0.362	0.37	0.395	0.369	0.697	0.696	0.674	0.73	0.584	0.841	0.855	0.521
NCI-H23	0.259	0.224	0.232	0.221	0.221	0.382	0.342	0.335	0.455	0.293	0.71	0.647	0.631	0.607	0.509	0.844	0.463	0.362
LC-2-ad	0.987	0.996	1.09	1	0.616	0.899	0.858	0.939	0.861	0.662	0.823	1.04	0.985	0.827	0.339	0.725	0.665	0.251
LCLC-97TM1	0.691	0.787	0.749	0.721	0.778	0.201	0.217	0.202	0.192	0.165	0.635	0.571	0.445	0.548	0.273	0.548	0.589	0.157

From the supplement of paper PMC10307832
